The results in this text go back to patent US20260194517A1, “FRUCTOSE-1,6-DIPHOSPHATE OPTICAL PROBE, AND PREPARATION METHOD THEREFOR AND USE THEREOF” (EAST CHINA UNIVERSITY OF SCIENCE AND TECHNOLOGY, priority 2022, published 2026).

Tested on in one assay: not listed separately
The assay can be described thus: Screening of linker-mutated cpYFP optical probes for response to fructose-1,6-bisphosphate. Format: biochemical. The conditions noted are these: linker mutants of CggR(88-340)-cpYFP; 485 nm/420 nm signal ratio of sample relative to control. The text has this:
The invention also provides use of fructose-1,6-bisphosphate optical probes in real-time localization, quantitative detection and high-throughput compound screening of fructose-1,6-bisphosphate. In one aspect, the fructose-1,6-bisphosphate optical probe, preferably linked with signal peptides at different parts of the cell, is transferred into cells for real-time localization of fructose-1,6-bisphosphate by detecting the strength of fluorescence signals in cells, corresponding quantitative detection of fructose-1,6-bisphosphate is performed by a fructose-1,6-bisphosphate standard titration curve. […] In the embodiment involving cpYFP, the ratio is the ratio of the ratio of the sample's 485-nanometer fluorescence signal to the 420-nanometer fluorescence signal to the corresponding ratio of the control. The fructose-1,6-bisphosphate standard titration curve of the present invention is drawn based on the fluorescence signal of the fructose-1,6-bisphosphate optical probe under different concentrations of fructose-1,6-bisphosphate. The fructose-1,6-bisphosphate optical probe described herein is directly transferred into cells, which is more accurate without time-consuming sample processing process during the real-time localization and quantitative detection of fructose-1,6-bisphosphate. When the fructose-1,6-bisphosphate optical probe of the present invention is used for high-throughput compound screening, different compounds are added to the cell culture fluid, and the change of fructose-1,6-bisphosphate content is measured, so as to screen out compounds that affect the change of fructose-1,6-bisphosphate content.
• 1. An expression vector (such as a pCDF-based fructose-1,6-bisphosphate optical probe expression vector) was transform into BL21 (DE3) cells, and invert-cultured overnight, and clones were picked from the plate into a 250 ml Erlenmeyer flask, and placed in a 37° C. shaker, cultured at 220 rpm to OD=0.4-0.8, add 1/1000 (v/v) IPTG (1 M), and induced expression at 18° C. for 24-36 h. • 2. After induction, cells were harvested by centrifugation at 4000 rpm for 30 min, resuspended in 50 mM phosphate buffer and disrupted ultrasonically until the broth were clear, centrifuged at 9600 rpm at 4° C. for 20 min. • 3. The centrifuged supernatant was purified by a self-packed nickel-column affinity chromatography column to obtain the protein, and the protein after nickel-column affinity chromatography was then passed through a self-packed desalting column to obtain the protein dissolved in 100 mM HEPES buffer (pH 7.4). • 4. After the purified protein was identified by SDS-PAGE, the probe was diluted with assay buffer (100 mM HEPES, 100 mM NaCl, pH 7.4) into a protein solution with a final concentration of 0.2-5 μM. Fructose-1,6-bisphosphate was prepared as a stock solution at a final concentration of 50 mM with assay buffer (100 mM HEPES, 100 mM NaCl, pH 7.4). • 5. 100 μl of 1 μM protein solution was taken and incubated at 37° C. for 10 min, […], and measured the fluorescence intensity of the protein at 528 nm after excitation at 420 nm and fluorescence intensity of the protein at 528 nm after excitation at 485 nm. The fluorescence excitation and emission measurement of the samples were completed by a multifunctional fluorescence microplate reader. • 6.100 μl of 1 μM protein solution was taken, incubated at 37° C. for 10 min, tryptophan was added, and measured the absorption and fluorescence spectra of the protein. The determination of the absorption spectrum and fluorescence spectrum of the sample was completed by a spectrophotometer and a fluorescence spectrophotometer.
Optical probe mutants were constructed based on PCDF-CggR(88-340)-176/177-CPYFP, PCDF-CggR(88-340)-176/178-CPYFP, PCDF-CggR(88-340)-177/181-CPYFP, PCDF-CggR(88-340)-179/180-CPYFP, PCDF-CggR(88-340)-182/184-CPYFP, PCDF-CggR(88-340)-182/185-CPYFP, PCDF-CggR(88-340)-203/206-CPYFP, PCDF-CggR(88-340)-203/207-CPYFP and PCDF-CggR-203/208(88-340)-CPYFP. […]
On to “Serial number 4: cpYFP at 176/177 of CggR(88-340); CggR: G177M/L178N; SEQ ID NO: 10”, for which the “Standardized fluorescence signal ratio” value worked out at 4.54.

Take “Serial number 7: cpYFP at 176/177 of CggR(88-340); CggR: G177M/L178N/Q185A; SEQ ID NO: 11”: the “Standardized fluorescence signal ratio” value is listed as 4.

Consider “Serial number 8: cpYFP at 176/177 of CggR(88-340); CggR: G177M/L178N/Q185T; SEQ ID NO: 12”, for which the “Standardized fluorescence signal ratio” value came out at 4.

Regarding “Serial number 9: cpYFP at 176/177 of CggR(88-340); CggR: G177M/L178N/Q185D; SEQ ID NO: 13”, the “Standardized fluorescence signal ratio” value is on record as 4.17.

“Serial number 16: cpYFP at 182/184 of CggR(88-340); CggR: N184V/Q185P/D181E/V182G/G177L CPYFP: Y1V; SEQ ID NO: 14”: the “Standardized fluorescence signal ratio” value came out at 11.6.

On to “Serial number 17: cpYFP at 182/184 of CggR(88-340); CggR: N184V/Q185P/D181E/V182G/G177L CPYFP: Y1I; SEQ ID NO: 15”, for which the “Standardized fluorescence signal ratio” value turned out to be 12.

Consider “Serial number 20: cpYFP at 182/184 of CggR(88-340); CggR: N184V/Q185P/D181E/V182G CPYFP: Y1V; SEQ ID NO: 16”, for which the “Standardized fluorescence signal ratio” value is listed as 9.6.

In another assay the test system is H1299 cells. Briefly: Dynamic monitoring of cytoplasmic fructose-1,6-bisphosphate in H1299 cells expressing the optical probe. Format: cell-based. The conditions noted are these: 0.5 mM 3-BrPA in HBSS, 30-min period, H1299 cells with cytoplasm-expressed probe. As to the method: • 1. The pCDNA3.1+-based fructose-1,6-bisphosphate optical probe plasmid was transfected into HEK293 cells by the transfection reagent Lipofectamine2000 (Invitrogen), and cultured in a cell incubator at 37° C., 5% CO2. Fluorescence detection was performed 24-36 h after the exogenous gene was fully expressed. • 2. After induction of expression, adherent HEK293 cells were washed three times with PBS and placed in HBSS solution for fluorescence microscopy and microplate reader assays, respectively.
After H1299 cells were transfected with the cytoplasm-expressed optical probe plasmid for 36 h, they were washed with PBS and placed in HBSS solutions containing 0 mM 3-BrPA and 0.5 mM 3-BrPA, and the changes in the ratio of the fluorescence intensity at 528 nm emission and at 420 nm excitation and the fluorescence intensity at 528 nm emission at 485 nm excitation were detected over a 30-min period.
On to `O=C(O)C(=O)CBr` [3-BrPA], for which the “ratio of 420/485, maximum relative to the initial value” is given as 3.7 times the initial value.
